The subject of the data set is sugarcane plantlet, cultivar CPO-1372. The conditions noted are these: in vivo. Here is the method:
Wax paper containers were cut into 4 cm and 7 cm lengths. One open end of each container was secured with either a 38 um thick LDL film, prepared as described in Example 25, or a 254 um thick soybean oil gel film. The latter was prepared by dissolving Kraton® A1535 poly(styrene-b-ethylene-co-butylene-co-styrene-b-styrene) triblock polymer in soybean oil (MP Biomedicals, Solon, Ohio) at 9 wt. % and 155° C., and casting the hot solution on a glass substrate using a doctor blade with a 5 cm wide and 254 um thick gap, preheated to 155° C. Upon cooling to room temperature, the physical gelation of the triblock polymer in the oil yielded a solid, but highly deformable film. LDL film was affixed to the wax paper container using a thin layer of cyanoacrylate adhesive (Sigma-Aldrich, St. Louis, Mo.). Soybean oil gel film was affixed by heating the film, still adhered to the glass substrate, to near its sol-gel transition (approximately 80° C.), pressing the end of the wax-paper container into the softened film, and cooling to room temperature to re-solidify the film.
The 4 and 7 cm wax paper containers, having their bottom ends secured with LDL or soybean oil gel film, were then loaded approximately one-third full with dry Metro-Mix® 360 growing media. One regenerated sugarcane plantlet was then added to each container. […]

On to “poly(lactide-b-dimethylsiloxane-b-lactide) [LDL]”, for which the “discoloration of plantlet shoots in contact with the closure (phytotoxicity)” value is “no discoloration”.

Values taken from US20130174483A1, “PLANT ARTIFICIAL SEEDS AND METHODS FOR THE PRODUCTION THEREOF” (E I DU PONT DE NEMOURS AND COMPANY, priority 2011, published 2013).
